Each structure is given as a SMILES string. Where two headings read alike, the source gives them in different places.

The values that follow come from patent US4540705A, “Antidepressant imidazolines and related compounds” (priority 1983, dated 1985).

Experiment [1] addresses T1, α2 -adrenergic binding sites (receptor) (Rattus norvegicus, UniProt P22909).
T1 construct: to displace ^3 H-clonidine (an α2 -adrenergic agonist) from membranes of rat brain; from tissue; host or cells: rat cerebral cortex homogenate (membranes)
T1 sequence (P22909 1-465): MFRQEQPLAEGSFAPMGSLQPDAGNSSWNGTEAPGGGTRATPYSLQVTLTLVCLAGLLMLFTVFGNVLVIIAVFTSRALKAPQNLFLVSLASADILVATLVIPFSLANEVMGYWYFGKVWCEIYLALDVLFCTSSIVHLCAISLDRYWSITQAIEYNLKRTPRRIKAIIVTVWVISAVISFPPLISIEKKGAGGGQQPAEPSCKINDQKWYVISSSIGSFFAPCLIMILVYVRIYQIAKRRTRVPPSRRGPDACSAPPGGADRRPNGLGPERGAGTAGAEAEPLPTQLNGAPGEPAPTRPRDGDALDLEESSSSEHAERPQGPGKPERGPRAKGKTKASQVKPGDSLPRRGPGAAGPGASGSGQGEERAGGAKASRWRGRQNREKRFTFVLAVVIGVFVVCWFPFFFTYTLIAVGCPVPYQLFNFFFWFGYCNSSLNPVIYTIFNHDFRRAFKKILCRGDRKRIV
Kind of experiment: Tritiated Clonidine Receptor Binding Assay. The note with it: for inhibition at 1 µM: at 1000 nM, read-out: Clonidine [^3 H] Binding % I. The procedure: (§1) The α2 -adrenergic antagonist activity is measured by three screening methods, described as follows:
(1) Tritiated Clonidine Receptor Binding Assay
Affinity is determined by assessing the ability of compounds to displace ^3 H-clonidine (an α2 -adrenergic agonist) from membranes of rat brain. Homogenates of rat cerebral cortex are incubated with 0.4 nM ^3 H-clonidine which binds to the α2 -adrenergic binding sites (receptor) present on the membranes of the homogenate. Compounds that bind to the α2 -adrenergic receptor, when added to the incubation mixture, will displace ^3 H-clonidine from its binding site, thereby diminishing the amount of bound radioactivity. The amount of ^3 H-clonidine still bound is quantitated by liquid scintillation spectrometry. The results are determined in terms of percent inhibition or as Ki values. Ki is a measure of the apparent affinity of the test substance for the α2 -adrenergic binding site, as determined by the method of Cheng and Prusoff, Biochemical Pharmacology 22, 3099 (1973).

The test system of experiment [2] is mice (α2 -adrenergic antagonism of clonidine). Nature of the experiment: In vivo Antagonism of Clonidine-induced Anti-nociception (phenyl-p-quinone writhing). The note with it: Mus musculus; for ED50: read-out: Antagonism of Clonidine Analgesia ED50 -p.o. The method, then:
as §1
(3) In vivo Antagonism of Clonidine-induced Anti-nociception
The intraperitoneal administration of phenyl-p-quinone (PPQ) to mice elicits a nociceptive response which consists of abdominal writhing and extension of the hind limbs. This writhing response is prevented in mice treated with clonidine. When an α2 -adrenergic antagonist is given prior to clonidine, the mice display the writhing response when PPQ is administered. To groups of thirty male mice for each experiment the test compound dissolved in 0.9% sodium chloride was administered either subcutaneously or orally. Clonidine (0.2 mg/kg) was administered orally when the test compound was given subcutaneously and subcutaneously when the test compound was administered orally. Twenty minutes after the administration of clonidine, PPQ (3 mg/kg) was given intraperitoneally. […] The number of mice that writhed at least three times during the five minute observation period was counted. The number of mice that writhed was scored for each dose of antagonist, and the percentage reversal of clonidine-induced anti-nociception (analgesia) was calculated by dividing the number of animals writhing by the total number of test animals and multiplying the quotient by 100.
For orientation: In writhing tests, fewer writhes than in controls are read as antinociception.

The target of experiment [3] is T2, α2 -adrenergic, isolated rat vas deferens (Rattus norvegicus, UniProt P22909).
T2 construct: isolated, electrically stimulated rat vas deferens; from tissue; host or cells: isolated rat vas deferens
T2 sequence (P22909 1-465): T1 sequence (P22909 1-465)
Kind of experiment: Vas Deferens Assay: antagonism of clonidine-induced inhibition of twitch height. The experiment is classed as biochemical. The method, then: as §1
Activity is determined by assessing the ability of compounds to antagonize the inhibition of twitch height induced by clonidine in the isolated, electrically stimulated rat vas deferens. […] The tissue is then rinsed to remove clonidine and, when the twitch height has returned to normal, the test compound is added. The ability of clonidine to inhibit twitch height is then again determined, and the clonidine-induced inhibition in the presence of the test compound is used to calculate percent antagonism of clonidine. Results are recorded in terms of percent inhibition at the concentration of antagonist used, or as pA2 values, determined by the Schild method; cf. Tallarida and Murray, Manual of Pharmacologic Calculations, pp. 29-32 (Springer-Verlag, 1981).

Another experiment relates to mice. Kind of experiment: Prevention of tetrabenazine-induced ptosis in mice. It is filed as in vivo. As to conditions: Mus musculus, read-out: Tetrabenazine Reversal ED50. The text has this:
A further measure of potential andidepressant activity was obtained by determining the effectiveness of the compounds of the invention in prevention of tetrabenazine-induced ptosis in mice by the method described by Barnett et al., Int. J. Neuropharmacol. 8, 353-360 (1969). The results were expressed in terms of ED50 values (effective dose in 50% of the animals).

Another experiment concerns male rats. Nature of the experiment: Diuretic activity in male rats in comparison with hydrochlorothiazide. The experiment is classed as in vivo, rat.
Experiment [4] deals with α2 -adrenergic. Kind of experiment: α2 -adrenergic antagonist activity (general statement). The method, then: On the other hand, the sympathomimetic activity characteristic of the latter group of compounds is not present in the compounds of the present invention.
The α2 -adrenergic antagonist activity is measured by three screening methods, described as follows: […]

For experiment [5], the system named is α2 -adrenergic. As to conditions: prior-art compounds; cited from earlier work.
Setting [6] is: 0.4 nM ^3 H-clonidine, rat cerebral cortex homogenate, read-out: Clonidine [^3 H] Binding Ki.
The mark [7] stands for this setting: sc, 100 mg/kg s.c., read-out: Antagonism of Clonidine Analgesia % A.
Setting [8] is: Schild method, clonidine 10 nM, read-out: Rat Vas Deferens pA2 (converted).
Where [9] appears, read: po, 100 mg/kg p.o., read-out: Antagonism of Clonidine Analgesia % A.
Setting [10] is: 0.4 nM ^3 H-clonidine, rat cerebral cortex homogenate.
Setting [11] is: rat, at 500 nM, clonidine 10 nM.
[12] abbreviates: sc, 30 mg/kg s.c., read-out: Antagonism of Clonidine Analgesia % A.

For orientation: Ki means the dissociation constant of the complex between target and ligand, obtained from inhibition or displacement. Regarding `C[C@@H]1c2ccccc2CC[C@H]1CC1=NCCN1` (relative stereo) [15(d), trans-4,5-Dihydro-2-[(1,2,3,4-tetrahydro-1-methyl-2-naphthalenyl)methyl]-1H-imidazole], the inhibition constant Ki in experiment [1] (setting [6]) worked out at 401 nM. Besides, the responders at 100 mg/kg in experiment [2] (setting [7]) amounted to 30%.
As to `C[C@@H]1c2ccccc2CC[C@@H]1CC1=NCCN1` (relative stereo) [Example 16, cis-4,5-Dihydro-2-[(1,2,3,4-tetrahydro-1-methyl-2-naphthalenyl)methyl]-1H-imidazole], the inhibition constant (Ki) in experiment [1] (setting [6]) was 135 nM. In experiment [3] (setting [8]), the Kb was 60.3 nM.
In general, ED50 refers to the dose at which the effect has come halfway, by size or by number of responders. Regarding `CC1=C(CC2=NCCN2)CCc2ccccc21` [1(b), 2-[(3,4-Dihydro-1-methyl-2-naphthalenyl)methyl]-4,5-dihydro-1H-imidazole], the Ki in experiment [1] (setting [6]) was 11.9 nM. Moreover, the responders at 100 mg/kg in experiment [2] (setting [9]) was 50%. Besides, the ED50 in experiment [2] (po) was determined as 111 mg/kg; with mice it was 18 mg/kg. Moreover, the Kb in experiment [3] (setting [8]) was 63.1 nM.
As to `CC1=C(CC2=NCCN2C)CCc2ccccc21` [4(b), 2-[(3,4-Dihydro-1-methyl-2-naphthalenyl)methyl]-4,5-dihydro-1-methyl-1H-imidazole], in experiment [1] (setting [10]), the inhibition at 1 µM came out at 60%. Further, in experiment [2] (setting [7]), the responders at 100 mg/kg was found to be 20%. Also, in experiment [3] (at 500 nM, clonidine 10 nM, 0.5 µM), the “Rat Vas Deferens % A.” value was 3%. For the same molecule, the inhibition at 0.5 µM in experiment [3] (setting [11]) amounted to 2%.
As to `CC(C1=Cc2ccccc2CC1)C1=NCCN1` (stereo not shown) [7(b), 2-[1-(3,4-Dihydro-2-naphthalenyl)ethyl]-4,5-dihydro-1H-imidazole], in experiment [1] (setting [6]), the Ki came out at 32 nM. The responders at 30 mg/kg in experiment [2] (setting [12]) turned out to be 70%. The Kb in experiment [3] (setting [8]) is 37.2 nM.
`COc1ccc2c(c1)CCC(CC1=NCCN1)=C2C` [8(b), 2-[(3,4-Dihydro-6-methoxy-1-methyl-2-naphthalenyl)methyl]-4,5-dihydro-1H-imidazole]: the inhibition at 1 µM in experiment [1] (setting [10]) was 53%. This molecule also showed an inhibition at 0.5 µM in experiment [3] (setting [11]) of 1%.
With `CC1=C(CC2=NCCN2)Cc2ccccc21` [9(b), 4,5-Dihydro-2-[(3-methyl-1H-inden-2-yl)methyl]-1H-imidazole], the Ki in experiment [1] (setting [6]) came out at 7 nM. Moreover, the responders at 30 mg/kg in experiment [2] (po, 30 mg/kg p.o., read-out: Antagonism of Clonidine Analgesia % A.) is 10%. Besides, in experiment [3] (setting [8]), the Kb is 19.5 nM.
Consider `C1=C(CC2=NCCN2)Cc2ccccc21` [10(b), 4,5-Dihydro-2-[(1H-inden-2-yl)methyl]-1H-imidazole], for which the Ki in experiment [1] (setting [6]) is 76 nM. The responders at 10 mg/kg in experiment [2] (sc, 10 mg/kg s.c., read-out: Antagonism of Clonidine Analgesia % A.) came to 70%. Moreover, the Kb in experiment [3] (setting [8]) is 64.6 nM.
Take `Cc1c(CC2=NCCN2)ccc2ccccc12` [17(e), 4,5-Dihydro-2-[(1-methyl-2-naphthalenyl)methyl]-1H-imidazole]: the Ki in experiment [1] (setting [6]) turned out to be 7 nM. In addition, the values for the ED50 (in experiment [2] (po); in the experiment on mice) were 27 mg/kg and 3 mg/kg, respectively. Moreover, in experiment [2] (setting [7]), the responders at 100 mg/kg is 70%. Moreover, the Kb in experiment [3] (setting [8]) is 44.7 nM.
Turning to `C1=C(CC2=NCCN2)CCc2ccccc21` [Example 2(b), 2-[(3,4-Dihydro-2-naphthalenyl)methyl]-4,5-dihydro-1H-imidazole], the Ki in experiment [1] (setting [6]) amounted to 28 nM. Also, the ED50 in experiment [2] (po) stood at 33 mg/kg; with mice, 284 mg/kg. In addition, the responders at 100 mg/kg in experiment [2] (setting [7]) stood at 90%. Further, the Kb in experiment [3] (setting [8]) was 17.4 nM.
In the case of `CC1=C(CC2=NCCCN2)CCc2ccccc21` [Example 3, 2-[(3,4-Dihydro-1-methyl-2-naphthalenyl)methyl]-1,4,5,6-tetrahydropyrimidine], in experiment [1] (setting [6]), the Ki stood at 334 nM.
Turning to `CCN1CCN=C1CC1=C(C)c2ccccc2CC1` [Example 5, 2-[(3,4-Dihydro-1-methyl-2-naphthalenyl)methyl]-1-ethyl-4,5-dihydro-1H-imidazole], the Ki in experiment [1] (setting [6]) came to 548 nM. Besides, the responders at 100 mg/kg in experiment [2] (setting [7]) was 20%. In addition, the inhibition at 0.5 µM in experiment [3] (setting [11]) was found to be 2%.
As for `CC1=C(CC2=NC(C)CN2)CCc2ccccc21` (stereo not shown) [Example 6, 2-[(3,4-Dihydro-1-methyl-2-naphthalenyl)methyl]-4,5-dihydro-4-methyl-1H-imidazole], in experiment [1] (setting [10]), the inhibition at 1 µM was determined as 59%. Further, the responders at 100 mg/kg in experiment [2] (setting [7]) is 20%. For the same molecule, the inhibition at 0.001 µM in experiment [3] (rat, at 1 (head: Conc. (nM)), clonidine 10 nM) is 3%.
With `CC1=C(Cc2ncc[nH]2)CCc2ccccc21` [Example 11, 2-[(3,4-Dihydro-1-methyl-2-naphthalenyl)methyl]-1H-imidazole], the Ki in experiment [1] (setting [6]) came out at 88 nM. The responders at 30 mg/kg in experiment [2] (setting [12]) is 60%. For the same molecule, the Kb in experiment [3] (setting [8]) was 120 nM.
Consider `CC1=C(CC2=NCC(C)(C)CN2)CCc2ccccc21` [Example 12, 2-[(3,4-Dihydro-1-methyl-2-naphthalenyl)methyl]-1,4,5,6-tetrahydro-5,5-dimethylpyrimidine], for which the entries for the “increase of sodium excretion, activity relative to hydrochlorothiazide” value with male rats (30 mg/kg oral) and in the experiment with male rats (100 mg/kg oral) were 38% and 94%, respectively. Moreover, the “diuretic activity (in words)” value with male rats (in comparison with hydrochlorothiazide) is on record as “found to possess diuretic activity”. Further, the “α2 -adrenergic antagonist activity (in words)” value in the experiment on α2 -adrenergic [4] is recorded as “apparently devoid of any significant α2 -adrenergic antagonist properties”.
`c1ccc2cc(CC3=NCCN3)ccc2c1` [Example 18, 4,5-Dihydro-2-(2-naphthalenylmethyl)-1H-imidazole]: in experiment [1], the affinity corresponds to a Ki of 48 nM. The responders at 100 mg/kg in experiment [2] (setting [9]) was 80%. Besides, the median effective dose (ED50) came out at 53 mg/kg in experiment [2] (po) and 27 mg/kg in the experiment with mice. In experiment [3], this molecule showed a Kb of 21.4 nM.
For `c1ccc2c(c1)CCCC2C1=NCCN1` (stereo not shown) [tetrahydrozoline, 2-(1,2,3,4-tetrahydro-1-naphthyl)-2-imidazoline, reference compound], the “α2 -adrenergic antagonist activity (in words, background section)” value in the experiment with α2 -adrenergic [5] is “do not possess α2 -adrenergic antagonist activity”. In the experiment with α2 -adrenergic [4], the “α2 -adrenergic antagonist activity (in words)” value is given as “essentially devoid of such activity”.
